Measured values published in ChEMBL document CHEMBL4020835, “Optimization of Metabolic and Renal Clearance in a Series of Indole Acid Direct Activators of 5'-Adenosine Monophosphate-Activated Protein Kinase (AMPK)” (J Med Chem, 2018).
Values after ≈ are worked out from the molar mass of the structure shown.

Assays:
physchem [1] = conditions: buffer, pH 7.4
in vivo = conditions: Wistar Han, rat, urine, iv, 1 mg/kg
physchem [2] = experiment: physchem
[3] = Cmax in cynomolgus monkey at 3 mg/kg via oral gavage measured up to 24 hrs post dose by LC-MS/MS analysis; assay type: ADME, organism-based, Macaca fascicularis; parameters: dose 3 mg/kg, route oral; conditions: in vivo
[4] = Tmax in Wistar Han rat at 3 mg/kg via oral gavage by LC-MS/MS analysis; assay type: ADME, organism-based; conditions: in vivo
Rattus norvegicus [5] = experiment: (§1) Oral bioavailability in Wistar Han rat at 3 mg/kg via gavage measured up to 24 hrs post dose by LC-MS/MS analysis; assay type: ADME, organism-based; conditions: in vivo, 24 h
[6] = Volume of distribution at steady state in cynomolgus monkey at 1 mg/kg, iv via bolus dose measured up to 24 hrs post dose by LC-MS/MS analysis; assay type: ADME, organism-based, Macaca fascicularis; conditions: in vivo, read-out: Vdss
Rattus norvegicus [7] = experiment: (§2) AUC (0 to 24 hrs) in Wistar Han rat at 3 mg/kg via oral gavage measured up to 24 hrs post dose by LC-MS/MS analysis; assay type: ADME, organism-based; parameters: dose 3 mg/kg, time < 24 hr, route oral; conditions: in vivo, 24 h
[8] = Oral bioavailability in cynomolgus monkey at 3 mg/kg via gavage measured up to 24 hrs post dose by LC-MS/MS analysis; assay type: ADME, organism-based, Macaca fascicularis; conditions: in vivo
[9] = Volume of distribution at steady state in Wistar Han rat at 1 mg/kg, iv via bolus dose measured up to 24 hrs post dose by LC-MS/MS analysis; assay type: ADME, organism-based; conditions: in vivo, read-out: Vdss
[10] = Thermodynamic solubility of the compound in sodium phosphate buffer at pH 7.4 after 24 hrs by nitrogen detection method; assay type: physicochemical; conditions: read-out: Therm_solubility
[11] = Tmax in cynomolgus monkey at 3 mg/kg via oral gavage by LC-MS/MS analysis; assay type: ADME, organism-based, Macaca fascicularis; conditions: in vivo
[12] = AUC (0 to 24 hrs) in cynomolgus monkey at 1 mg/kg, iv via bolus dose measured up to 24 hrs post dose by LC-MS/MS analysis; assay type: ADME, organism-based, Macaca fascicularis; parameters: time < 24 hr, dose 1 mg/kg, route intravenous; conditions: in vivo
Rattus norvegicus [13] = experiment: (§3) AUC (0 to 24 hrs) in Wistar Han rat at 1 mg/kg, iv via bolus dose measured up to 24 hrs post dose by LC-MS/MS analysis; assay type: ADME, organism-based; parameters: time < 24 hr, dose 1 mg/kg, route intravenous; conditions: in vivo, 24 h
[14] = AUC (0 to 24 hrs) in cynomolgus monkey at 3 mg/kg via oral gavage measured up to 24 hrs post dose by LC-MS/MS analysis; assay type: ADME, organism-based, Macaca fascicularis; parameters: time < 24 hr, dose 3 mg/kg, route oral; conditions: in vivo
[15] = Drug excretion in cynomolgus monkey urine assessed as compound recovered at 1 mg/kg, iv measured over 24 hrs by LC/MS analysis; assay type: ADME, organism-based, Macaca fascicularis; conditions: read-out: Drug recovery
[16] = rat, in vivo, iv, 1 mg/kg, 24 h
[17] = Cmax in Wistar Han rat at 3 mg/kg via oral gavage measured up to 24 hrs post dose by LC-MS/MS analysis; assay type: ADME, organism-based; parameters: dose 3 mg/kg, route oral; conditions: in vivo
[18] = as §1; assay type: ADME, organism-based; conditions: Wistar Han, in vivo
[19] = as §2; assay type: ADME, organism-based; parameters: dose 3 mg/kg, time < 24 hr, route oral; conditions: Wistar Han, in vivo
[20] = as §3; assay type: ADME, organism-based; parameters: time < 24 hr, dose 1 mg/kg, route intravenous; conditions: Wistar Han, in vivo

## O=C(O)c1c[nH]c2cc(Cl)c(-c3ccc(OCCCN4CCOCC4)cc3)cc12
Physchem [1]
  logD: 1.8
In vivo
  dose excreted at 24 h: 12%
Physchem [2]
  pKa: 5.4 to 7.1

## O=C(O)c1c[nH]c2cc(Cl)c(-c3ccc(OCCO)cc3)cc12
Physchem [1]
  logD: 1.1
In vivo
  dose excreted at 24 h: 10%
Physchem [2]
  pKa: 4.8

## N#Cc1cc2[nH]cc(C(=O)O)c2cc1-c1ccc(C2(O)CCC2)cc1
Physchem [1]
  logD: 1.1
Physchem [2]
  pKa: 4.6

## O=C(O)c1c[nH]c2cc(F)c(-c3ccc(C4(O)CCC4)cc3)c(F)c12
Physchem [1]
  logD: 1.3
In vivo
  dose excreted at 24 h: 10.7%
Physchem [2]
  pKa: 4.9

## O=C(O)c1c[nH]c2cc(Cl)c(-c3ccc(C4CCCCO4)cc3)cc12 (stereo unspecified)
Physchem [1]
  logD: 2.8
Physchem [2]
  pKa: 4.9

## COCCOc1ccc(-c2cc3c(C(=O)O)c[nH]c3cc2Cl)cc1
Physchem [1]
  logD: 1.8
Physchem [2]
  pKa: 5

## COc1nc(N(C)C)ccc1-c1cc2c(C(=O)O)c[nH]c2cc1Cl
[3]
  Cmax: 2540 ng/mL
[4]
  Tmax: 5.5 h
Rattus norvegicus [5]
  F: 52%
[6]
  Vd: 0.46 L/kg
Rattus norvegicus [7]
  AUC: 160000 ng·h/mL
Physchem [1]
  logD: 2.3
[8]
  bioavailability: 67%
[9]
  Vd: 0.1 L/kg
[10]
  solubility thermodynamic at 24 h: 120 µM (≈ 41.5 µg/mL)
[11]
  Tmax: 1.5 h
[12]
  AUC(0-t) at 24 h: 15500 ng·h/mL
Physchem [2]
  pKa: 2.6 to 4.9
Rattus norvegicus [13]
  AUC: 254000 ng·h/mL
[14]
  AUC(0-t) at 24 h: 31200 ng·h/mL
[15]
  dose excreted at 24 h: < 1%
[16]
  Drug recovery: 1 ng/mL
[17]
  Cmax: 10200 ng/mL

## O=C(O)c1c[nH]c2cc(F)c(-c3ccc([C@H]4CCCCO4)cc3)c(F)c12
Physchem [1]
  logD: 2

## COc1ccc(-c2cc3c(C(=O)O)c[nH]c3cc2Cl)c(OC)n1
Physchem [1]
  logD: 2.1
Physchem [2]
  pKa: 4.8

## COc1ccc(-c2cc3c(C(=O)O)c[nH]c3cc2Cl)cn1
Physchem [1]
  logD: 1.8
Physchem [2]
  pKa: 2.4 to 4.9

## CN(C)c1ccc(-c2cc3c(C(=O)O)c[nH]c3cc2Cl)cn1
Physchem [1]
  logD: 1.7
Physchem [2]
  pKa: 4.7 to 6.2

## O=C(O)c1c[nH]c2cc(F)c(-c3ccc([C@@H]4CCCCO4)cc3)c(F)c12
[3]
  Cmax: 8180 ng/mL
[4]
  Tmax: 2.7 h
[18]
  bioavailability: 26%
[6]
  Vd: 0.3 L/kg
[19]
  AUC(0-t) at 24 h: 12800 ng·h/mL
Physchem [1]
  logD: 1.9
In vivo
  dose excreted at 24 h: 1.6%
[8]
  bioavailability: 85%
[9]
  Vd: 0.31 L/kg
[10]
  solubility thermodynamic at 24 h: 14 µM (≈ 5 µg/mL)
[11]
  Tmax: 2 h
[12]
  AUC(0-t) at 24 h: 35900 ng·h/mL
Physchem [2]
  pKa: 5
[20]
  AUC(0-t) at 24 h: 16400 ng·h/mL
[14]
  AUC(0-t) at 24 h: 91600 ng·h/mL
[15]
  dose excreted at 24 h: 2.2%
[17]
  Cmax: 1890 ng/mL
